Substitutions are numbered along the chain they refer to.
Columns and labels:
wild type AR (Wild) = biological target: T1, wild type AR (Wild) (Homo sapiens, UniProt P10275); assay: Inhibitory action against transcriptional activation of AR (luciferase reporter, CHO-K1 cells, DHT 0.3 nM)
T1 sequence (P10275 1-920): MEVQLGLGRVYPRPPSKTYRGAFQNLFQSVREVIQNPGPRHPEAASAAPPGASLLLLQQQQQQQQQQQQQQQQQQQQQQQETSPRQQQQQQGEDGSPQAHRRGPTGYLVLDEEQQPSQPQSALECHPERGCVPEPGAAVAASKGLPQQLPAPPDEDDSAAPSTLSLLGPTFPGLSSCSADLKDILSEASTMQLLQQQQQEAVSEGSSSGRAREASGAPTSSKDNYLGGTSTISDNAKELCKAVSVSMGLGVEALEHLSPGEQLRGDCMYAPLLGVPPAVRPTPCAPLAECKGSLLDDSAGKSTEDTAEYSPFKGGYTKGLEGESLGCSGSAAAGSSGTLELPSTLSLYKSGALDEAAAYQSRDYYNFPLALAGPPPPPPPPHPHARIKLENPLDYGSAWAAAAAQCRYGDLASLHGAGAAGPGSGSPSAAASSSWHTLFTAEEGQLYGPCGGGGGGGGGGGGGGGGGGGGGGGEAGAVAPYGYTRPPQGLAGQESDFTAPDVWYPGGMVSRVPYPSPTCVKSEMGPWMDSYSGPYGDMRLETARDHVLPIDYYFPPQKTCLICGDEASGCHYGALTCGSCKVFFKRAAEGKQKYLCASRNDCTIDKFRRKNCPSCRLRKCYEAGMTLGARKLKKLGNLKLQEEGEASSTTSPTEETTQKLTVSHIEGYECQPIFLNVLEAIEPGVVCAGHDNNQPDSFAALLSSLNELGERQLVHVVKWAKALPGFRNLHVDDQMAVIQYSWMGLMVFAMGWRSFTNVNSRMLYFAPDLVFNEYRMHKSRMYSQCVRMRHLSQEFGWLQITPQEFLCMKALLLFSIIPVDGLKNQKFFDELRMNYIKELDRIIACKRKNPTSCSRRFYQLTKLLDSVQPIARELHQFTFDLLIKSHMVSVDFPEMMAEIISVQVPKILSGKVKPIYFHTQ

human T877A mutant AR = biological target: T2, human T877A mutant AR (Homo sapiens, UniProt P10275, T878A); assay: Inhibitory action against transcriptional activation of mutant AR (luciferase reporter, CHO-K1 cells, DHT 0.3 nM); format: cell-based; conditions: CHO-K1 cells stably expressing T877A mutant AR, with DHT 0.3 nM, >1000 nM means no inhibitory action observed, read-out: IC50, inhibition of transcriptional activation, T877A
T2 construct: expressed in transfected cells; host or cells: CHO-K1
T2 sequence (P10275 1-920 T878A): T1 sequence (P10275 1-920) with T878A
Method: Subsequently, the cells were incubated overnight again at 37° C. and then treated with a luciferase assay system.
An IC50 value was calculated by Sigmoid-Emax model nonlinear regression analysis.
The inhibitory action of the respective test compounds against the receptor was calculated as an IC50 value, and the values are described in the following table. In addition, “-” means that the test was not performed.

SMILES	IC50 (wild type AR (Wild))	IC50 (human T877A mutant AR)
COc1cc(N2C[C@@H](C)N(C(=O)Nc3cc(C)nc(C)n3)C[C@@H]2C)ccc1C#N [Ex 7, (2R,5S)-4-(4-cyano-3-methoxyphenyl)-N-(2,6-dimethylpyrimidin-4-yl)-2,5-dimethylpiperazine-1-carboxamide]	76 nM	
C[C@@H]1CN(c2ccc(C#N)c(Cl)c2)[C@@H](C)CN1C(=O)Nc1cnc(N2CCCCC2)nc1 [Ex 8, (2R,5S)-4-(3-chloro-4-cyanophenyl)-2,5-dimethyl-N-[2-(piperidin-1-yl)pyrimidin-5-yl]piperazine-1-carboxamide]	17 nM	
COc1ncc(NC(=O)N2C[C@H](C)N(c3ccc(C#N)c(Br)c3)C[C@H]2C)cn1 [Ex 11, (2R,5S)-4-(3-bromo-4-cyanophenyl)-N-(2-methoxypyrimidin-5-yl)-2,5-dimethylpiperazine-1-carboxamide]	26 nM	23 nM
Cc1cc(NC(=O)N2C[C@H](C)N(c3ccc(C#N)c(Cl)c3)C[C@H]2C)cc(Cl)n1 [Ex 16, (2R,5S)-4-(3-chloro-4-cyanophenyl)-N-(2-chloro-6-methylpyridin-4-yl)-2,5-dimethylpiperazine-1-carboxamide]	45 nM	24 nM
COc1cc(NC(=O)N2C[C@H](C)N(c3ccc(C#N)c(Cl)c3)C[C@H]2C)cc(C)n1 [Ex 18, (2R,5S)-4-(3-chloro-4-cyanophenyl)-N-(2-methoxy-6-methylpyridin-4-yl)-2,5-dimethylpiperazine-1-carboxamide]	10 nM	15 nM
COc1cc(NC(=O)N2C[C@H](C)N(c3ccc(C#N)c(Br)c3)C[C@H]2C)cc(C)n1 [Ex 19, (2R,5S)-4-(3-bromo-4-cyanophenyl)-N-(2-methoxy-6-methylpyridin-4-yl)-2,5-dimethylpiperazine-1-carboxamide]	11 nM	19 nM
CC(C)Oc1cc(N2C[C@@H](C)N(C(=O)Nc3cnc(C4CC4)nc3)C[C@@H]2C)ccc1C#N [Ref 1-1, reference compound]	140 nM	350 nM
COc1cc(N2C[C@@H](C)N(C(=O)Nc3nc(C)cc(O)n3)C[C@@H]2C)ccc1C#N [Ref 1-2, reference compound]	58 nM	89 nM
C[C@@H]1CN(c2ccc(C#N)c(Cl)c2)[C@@H](C)CN1C(=O)Nc1cnc2ccccc2n1 [Ref 1-3, (2R,5S)-4-(3-chloro-4-cyanophenyl)-2,5-dimethyl-N-(quinoxalin-2-yl)piperazine-1-carboxamide, reference compound]	51 nM	680 nM
